Series [1] has as its system ER negative MDA-MB231 breast cancer cells. Nature of the series: Breast cancer cell proliferation (MTT assay), MDA-MB231. Format: cell-based, human. On the procedure:
Estrogen receptor (ER) positive MCF-7, and ER negative MDA-MB231 cells were plated in 5 mM fructose or glucose for times between 8-72 h, and proliferative rates measured using MTT assay. *, p<0.05; **, p<0.01.
FIG. 5 depicts fructose-mediated increased breast cancer proliferation in accordance with an embodiment of the present invention. ER positive MCF-7, and ER negative MDA-MB231 cells were plated in a range of fructose or glucose concentrations (5-25 mM) for 72 h, after which proliferative rates were measured using an MTT assay. *, p<0.05 for concentrations between 5-25 mM fructose versus glucose.
Standard media for breast cancer cell culture contain either 5-7 mM (low) and 12-25 mM (high) glucose concentrations. Estrogen receptor (ER) positive MCF-7, and ER negative MDA-MB231 cells were cultured overnight in 2 mM glucose standard DMEM medium containing 10% fetal bovine serum prior to incubation for periods between 8, and 72 hours in standard DMEM medium containing 10% fetal bovine serum, and 5 mM glucose or 5 mM fructose.
Proliferative rates were then measured in replicate (minimum of 6) aliquot wells of the breast cancer cells grown in glucose, or fructose containing medium. […] In separate experiments, proliferative rates of the MCF-7, and MDA-MB231 breast cancer cells were compared following culture in a range of fructose, and glucose concentrations (2-25 mM) for 72 hours.
In general terms: Formazan colour is commonly taken as a measure of viable cells.

For series [2], the system named is PANC-1 pancreatic cancer cells. Nature of the series: BRDU uptake in PANC-1 cells. In kind it is cell-based, human. The conditions noted are these: PANC-1, 5.5 mM fructose, 72 h. As to the method:
FIG. 16 depicts BRDU uptake following treatment with glucose or fructose in accordance with an embodiment of the present invention. PANC-1 cells were pre-incubated in 2 mM glucose prior to treatment with 5.5 mM glucose or fructose for 72 h. BRDU (0.01 mg/ml) was added to the medium at 48 h, and BRDU-uptake quantified at 72 h.
As a further measure of PANC-1 proliferative rates, the inventors compared bromodeoxyuridine (BRDU) uptake following PANC-1 cell treatment as before with 2 mM, and 5.5 mM glucose, or 5.5 mM fructose for 72 h. In the final 12 h, 10 μM BRDU was added to the glucose-, and fructose-treated cells, after which BRDU-positive cells were counted. […] A further question the inventors sought to address was would the fructose-induced pancreatic cancer proliferative rates be maintained if the PANC-1 cells were also exposed to, and able to utilize their customary culture glucose concentrations. Therefore, the inventors cultured PANC-1 cells for 72 h in a range of glucose concentrations (0-15 mM) admixed with a range of fructose concentrations (0-15 mM).

Series [3] in a line: Serum fructose and glucose in normal volunteers after two cans of soda. In kind it is in vivo, human. On the procedure: FIG. 37 depicts fasting serum fructose and glucose levels in patients with pancreatic cancer and in normal volunteers in accordance with an embodiment of the present invention. (a) Fasting serum fructose and glucose levels in 6 patients with pancreatic cancer on the morning of resection. (b) Serum fructose, and glucose levels (Mean±SEM) in 3 normal volunteers after a 10 h fast, followed by ingestion of two cans of soda, containing 76 g of carbohydrate in the form of high fructose corn syrup (55% fructose, 45% glucose).
The normal circulating concentrations of fructose are unknown. […] Briefly, aliquots (20 μl) of fructose standards (0.1, 0.5, 1, 2, 4, 6, and 8 mM) or unknown serum samples were mixed with 5 μl of a stock solution (125 U/ml) of the enzyme fructose dehydrogenase (Sigma) in 175 μl citric acid (0.05 M) phosphate (0.09 M) buffer (pH 4.5), and 20 μl of 3-(4,5-dimethylthiazol-2-yl)-2,5-diphenyltetrazolium bromide (MTT), and phenazine methosulfate (Promega), incubated for 30 minutes, after which absorbance at 570 nm was recorded in a 96-well spectrophotometer. […] As the first analysis, in accordance with institutional review board guidelines, the inventors obtained 32 serum samples randomly selected from anonymous inpatients at Cedars-Sinai Medical Center. The inventors also measured glucose in these same samples using standard glucose oxidase based methods. No details of medical condition were known for these patients, and as depicted in FIG. 36, in 24 of these 32 patients, serum fructose was greater than 5 mM. This intriguing result prompted the inventors to examine serum fructose levels in two other settings. Firstly, the inventors drew fasting blood samples from 6 patients with pancreatic cancer on the morning of surgical tumor resection. As depicted in FIG. 37a, 4 of these 6 patients had fasting serum fructose levels >5 mM, and two patients had serum fructose concentrations of ˜12 mM. The significance of these findings in pancreatic cancer patients is at this point unclear, but the inventors believe that the fructose-mediated pro-proliferative effects seen in pancreatic cancer cells in vitro are of significance, given the circulating fructose concentrations the inventors measured. In a further experiment, 3 normal volunteers fasted for 10 hours, an indwelling cannula was placed in a forearm vein, baseline fasting blood drawn, after which they drank two cans of regular soda, which contained 76 g of sugars, almost exclusively high fructose corn syrup. This source of carbohydrate was chosen to approximate to equivalent glucose concentrations used in a standard 75 g glucose tolerance test, and to bear relevance that dietary sources of high content refined fructose may pose an independent risk factor for pancreatic cancer growth.

The test system of the next series is normal pancreas cells. Nature of the series: Proliferation of normal pancreas cells (BRDU-uptake, MTS). In kind it is cell-based, human. The conditions noted are these: 72 h. As to the method: FIG. 20 depicts a degree of increased proliferation of normal pancreatic cells in accordance with an embodiment of the present invention. Freshly resected normal pancreas tissues were mechanically and enzymatically dispersed, and cells were pre-incubated in 2 mM glucose prior to treatment with 5.5 mM glucose or fructose for 72 h. BRDU (10 μM) was added to the medium at 60 h, and BRDU-uptake quantified at 72 h.
In the course of obtaining fresh surgically resected pancreatic cancer tissue, the inventors also obtained some peripherally adjacent “normal” pancreatic tissue and normal tissue from a patient undergoing pancreas resection for complications of chronic pancreatitis. The inventors studied 5 of these “normal” pancreas tissues, and although caveats may exist given that they were derived from pancreases which were involved with another disease entity, the inventors believe they offer a useful comparator for the tumors. […] As before, BRDU (10 µM) was added, after which BRDU-uptake was quantified. In parallel experiments, when sufficient normal pancreatic issue was available, proliferative rates following 72 h incubation in the sugars were also measured using the MTS proliferation assay. […]

Consider `O=C(CO)[C@@H](O)[C@H](O)[C@H](O)CO` [fructose], for which the “proliferative rates in fructose compared to glucose” value in series [1] (MDA-MB231, 5 mM fructose vs 5 mM glucose, 8-72 h) is “higher proliferative rates”. Also, the “proliferative rates in 5 mM fructose compared to 25 mM glucose” value in series [1] (MDA-MB231, 72 hours, 5 mM fructose vs 5-fold higher glucose (25 mM)) is on record as “higher proliferative rates”. In addition, the “BRDU-uptake higher than with 5.5 mM glucose” value in series [2] was around 75%. Besides, in series [3] (3 normal volunteers, 10 h fast, before soda), the “mean fasting fructose level” value was found to be 2.66 mM. Besides, the “mean serum fructose peak” value in series [3] (30 minutes after two sodas) is recorded as 17 mM. Besides, the serum fructose levels result in series [3] (for the 2 hour duration of blood sampling after two sodas) is listed as “greater than 5 mM”. Moreover, the “mean serum fructose levels” value in series [3] (within 15 minutes after two sodas (76 g sugars, high fructose corn syrup)) was determined as 16.5 mM. In addition, in the series on normal pancreas cells, the “proliferative rates, 5.5 mM glucose vs 5.5 mM fructose” value is “did not differ significantly”.
